In patent US9975880B2, “Imidazolidine-2,4-dione dervatives” (IPSEN PHARMA S.A.S., priority 2013, dated 2018):
Values after ≈ are worked out from the molar mass of the structure shown.

Experiments:
VCaP cells = experiment: Anti-proliferative activity on VCaP in complete medium; assay type: cell-based; conditions: Homo sapiens, Cell-Titer-Glow, read-out: IC50 on the VCaP cells in culture (inhibition of cell proliferation by 50%)
Description: • The cells of the VCaP line (ATCC CRL-2876) are seeded at 20000 cells/well in 90 μl of complete medium in 96-well plates coated with poly-D-lysine (Biocoat, Costar). • Treatment of the cells: 24 h after the seeding, the cells are treated with 10 μl/well of compound diluted in the culture medium. The concentrations used are the following: 1 nM/10/30/100/300/1000/3000/10,000 nM. The cells are incubated for 144 h at 37° C., 5% CO2. • Reading: After incubation for […], cell proliferation was determined by Cell-Titer-Glow (CTG) Luminescent Cell Viability Assay • Results: The experiments are carried out in duplicate and the best compounds are tested twice. A concentration value inhibiting the cell proliferation by 50% (IC50) is calculated.

DU145 cells = experiment: Anti-proliferative activity on DU145 in complete medium; assay type: cell-based; conditions: DU145 (no androgen receptor), 144 h, up to 10,000 nM, Cell-Titer-Glow
Description: It is used to evaluate the selectivity of the compounds for androgen receptor expressing cells. No activity of the compounds is expected. • The cells of the DU145 line (ATCC HTB-81) are seeded at 800 cells/well in 90 μl of complete medium in 96-well plates coated with poly-D-lysine (Biocoat, Costar). • Treatment of the cells: 24 h after the seeding, the cells are treated with 10 μl/well of compound diluted in the culture medium. The concentrations used are the following: 1 nM/10/30/100/300/1000/3000/10,000 nM. The cells are incubated for 144 h at 37° C., 5% CO2. • Reading: After incubation for 6 days, cell proliferation was determined by Cell-Titer-Glow (CTG) Luminescent Cell Viability Assay • Results: The experiments are carried out in duplicate and the best compounds are tested twice. A concentration value inhibiting the cell proliferation by 50% (IC50) is calculated.

Evaluation of solubility = assay type: physicochemical; conditions: aqueous buffer, kinetic from dmso stock; 100 mM potassium phosphate buffer pH 7.4, 0.1% DMSO, target 100 μM, 1 hour room temperature, LC-MS/MS
Description: Test compounds were prepared as stock solutions at 100 mM in DMSO. The stock solutions were diluted, in duplicate, into 100 mM potassium phosphate buffer (pH 7.4) to a target concentration of 100 μM with a final DMSO concentration of 0.1%. The solutions were shaken at 1000 rpm for 1 hour at room temperature followed by centrifugation for 10 minutes at 1200 rpm to precipitate un-dissolved particles. The supernatants were transferred to new tubes and the samples were further prepared as follows: • Undiluted: 5 μL of supernatant to 95 μL of ACN containing internal standard (IS) • 1:10 diluted: 10 μL of the supernatant into 90 μL K-buffer, mix, then transfer 5 μL of 1:10 diluted samples to 95 μL ACN containing IS • 1:100 diluted: 10 μL of the supernatant into 990 μL K-buffer, mix, then transfer 5 μL of 1:100 diluted samples to 95 μL of ACN containing IS
Samples (undiluted, 1:10 diluted, and 1:100 diluted) along with the standards were analyzed by LC-MS/MS.

LNCaP cells = experiment: Anti-proliferative activity on LNCaP in complete medium; assay type: cell-based; conditions: Homo sapiens, 144 h, complete medium, 144 h incubation, Cell-Titer-Glow, read-out: IC50 on the LNCaP cells in culture (inhibition of cell proliferation by 50%)
Description: The anti-proliferative activity of the compounds of the present invention is determined on LNCaP in complete medium by applying the following experimental procedure:
The LNCaP cell type (ATCC, 1740) originates from a prostate carcinoma. This line expresses the androgen receptor and is hormone-dependent.
Maintenance of the LNCaP line is carried out in complete culture medium: RPMI, 10% of fetal calf serum, 2 mM glutamine, 100 U/ml penicillin, 0.1 mg/ml of streptomycin and 0.01M HEPES, 1 mM sodium pyruvate, […]. • Seeding the plates:
The LNCaP line is seeded at 20,000 cells/well in 90 μl of complete medium in 96-well plates coated with poly-D-lysine (Biocoat, Costar). • Treatment of the cells: 24 h after the seeding, the cells are treated with 10 μl/well of compound diluted in the culture medium. The concentrations used are the following: 1 nM/10/30/100/300/1000/3000/10,000 nM. The cells are incubated for 144 h at 37° C., 5% CO2. • Reading: After incubation for 6 days, cell proliferation was determined by Cell-Titer-Glow (CTG) Luminescent Cell Viability Assay. • Results: The experiments are carried out in duplicate and the best compounds are tested twice. […] Anti-Proliferative Activity on DU145 in Complete Medium

| Compound | IC50 (VCaP cells) [µM] | IC50 on DU145 cells (anti-proliferative effect) (DU145 cells) | solubility at 1 h (Evaluation of solubility) [µM] | IC50 (LNCaP cells) [µM] |
| --- | --- | --- | --- | --- |
| CC1(C)C(=O)N(c2ccc(C#N)c(C(F)(F)F)c2)C(=O)N1C/C=C\CN1CCN(c2ccc(S(C)(=O)=O)c(C(F)(F)F)c2)C1=O [Example 10, (Z)-4-(4,4-dimethyl-3-(4-(3-(4-(methylsulfonyl)-3-(trifluoromethyl)phenyl)-2-oxoimidazolidin-1-yl)but-2-en-1-yl)-2,5-dioxoimidazolidin-1-yl)-2-(trifluoromethyl)benzonitrile] | ≤ 5 | no measurable IC50 | – | – |
| CC1(C)C(=O)N(c2ccc(C#N)c(C(F)(F)F)c2)C(=O)N1C/C=C\CN1CC(c2ccc(S(C)(=O)=O)c(Cl)c2)CC1=O (stereo not drawn) [Example 14, (Z)-4-(3-(4-(4-(3-chloro-4-(methylsulfonyl)phenyl)-2-oxopyrrolidin-1-yl)but-2-en-1-yl)-4,4-dimethyl-2,5-dioxoimidazolidin-1-yl)-2-(trifluoromethyl)benzonitrile] | ≤ 5 | no measurable IC50 | 24.1 (≈ 15 µg/mL) | – |
| CC1(C)C(=O)N(c2ccc(C#N)c(C(F)(F)F)c2)C(=O)N1C/C=C\CN1CCC(c2ccc(C#N)c(C(F)(F)F)c2)C1 (stereo not drawn) [Example 12, (Z)-4-(1-(4-(3-(4-cyano-3-(trifluoromethyl)phenyl)-5,5-dimethyl-2,4-dioxoimidazolidin-1-yl)but-2-en-1-yl)pyrrolidin-3-yl)-2-(trifluoromethyl)benzonitrile] | ≤ 5 | no measurable IC50 | – | < 1.5 |
| CC1(C)C(=O)N(c2ccc(C#N)c(C(F)(F)F)c2)C(=O)N1C/C=C\CN1CC(c2ccc(S(C)(=O)=O)c(C(F)(F)F)c2)CC1=O (stereo not drawn) [Example 13, (Z)-4-(4,4-dimethyl-3-(4-(4-(4-(methylsulfonyl)-3-(trifluoromethyl)phenyl)-2-oxopyrrolidin-1-yl)but-2-en-1-yl)-2,5-dioxoimidazolidin-1-yl)-2-(trifluoromethyl)benzonitrile] | ≤ 5 | no measurable IC50 | – | < 1.5 |
| CC1(C)C(=O)N(c2ccc(S(C)(=O)=O)c(C(F)(F)F)c2)C(=O)N1C/C=C\Cn1cc(-c2ccc(S(C)(=O)=O)c(C(F)(F)F)c2)cn1 [Example 3, (Z)-5,5-dimethyl-3-(4-(methylsulfonyl)-3-(trifluoromethyl)phenyl)-1-(4-(4-(4-(methylsulfonyl)-3-(trifluoromethyl)phenyl)-1H-pyrazol-1-yl)but-2-en-1-yl)imidazolidine-2,4-dione] | ≤ 5 | no measurable IC50 | 0.2 (≈ 0.139 µg/mL) | < 1.5 |
